Several values for one entry are separate records, joined by “and”; a condition that tells them apart may be missing. Equal entries are not always repeated. Results filed as inconclusive are left out.

In this experiment the test system is BDF1 mice, colon carcinoma 38 sc, T/C %. Description: NCI In Vivo Anticancer Drug Screen. Data for tumor model Colon Carcinoma 38 (subcutaneous) in B6D2F1 (BDF1) mice. The settings on record: endpoint: median tumor weight (est.), higher = larger tumour. The method, then: The antitumor activity of compounds was measured in mice bearing transplantable tumors. Survival or tumor size were measured and the results are expressed as the measurement made in the treated group (T) divided by the measurement made in the vehicle treated control group (C). The tumor model used in this assay is Colon Carcinoma 38 (subcutaneous) in B6D2F1 (BDF1) mice

[1] abbreviates: dose: 25.0 mg/kg/injection, schedule: Q07DX002 (ip), vehicle: Klucel (hydroxypropylcellulose) (HPC).
The mark [2] stands for this setting: dose: 50.0 mg/kg/injection, schedule: Q07DX002 (ip), vehicle: Klucel (hydroxypropylcellulose) (HPC).
Where [3] appears, read: dose: 100.0 mg/kg/injection, schedule: Q07DX002 (ip), vehicle: Klucel (hydroxypropylcellulose) (HPC).
The mark [4] stands for this setting: dose: 0.06 mg/kg/injection, schedule: Q07DX002 (ip), vehicle: saline.
Setting [5] is: dose: 0.25 mg/kg/injection, schedule: Q07DX002 (ip), vehicle: saline.
The mark [6] stands for this setting: dose: 12.5 mg/kg/injection, schedule: Q07DX002 (ip), vehicle: saline with Tween-80.
Setting [7] is: dose: 25.0 mg/kg/injection, schedule: Q07DX002 (ip), vehicle: saline with Tween-80.
[8] abbreviates: dose: 100.0 mg/kg/injection, schedule: Q07DX002 (ip), vehicle: saline with Tween-80.

In the case of `CC(C)CCC[C@@H](C)[C@H]1CC[C@H]2[C@@H]3CC=C4C[C@@H](OC(=O)Cc5ccc(N(CCCl)CCCl)cc5)CC[C@]4(C)[C@H]3CC[C@]12C`, the T/C by setting is: under setting [1], 85 % of control; under setting [2], 111 % of control; under setting [3], 103 % of control; (dose: 200.0 mg/kg/injection, schedule: Q07DX002 (ip), vehicle: Klucel (hydroxypropylcellulose) (HPC)) 103 % of control; (dose: 400.0 mg/kg/injection, schedule: Q07DX002 (ip), vehicle: Klucel (hydroxypropylcellulose) (HPC)) 77 % of control; (dose: 800.0 mg/kg/injection, schedule: Q07DX002 (ip), vehicle: Klucel (hydroxypropylcellulose) (HPC)) 82 % of control.

Take `CCN(C)N=Nc1ccc(C(N)=O)cc1`: the T/C is, setting by setting: (dose: 12.5 mg/kg/injection, schedule: Q07DX002 (ip), vehicle: Klucel (hydroxypropylcellulose) (HPC)) 82 % of control and 84 % of control; under setting [1], 82 % of control and 87 % of control; under setting [2], 56 % of control and 63 % of control and 76 % of control; under setting [3], 61 % of control and 77 % of control and 78 % of control.

On to `COC1=C(N)C(=O)c2nc(-c3nc(C(=O)O)c(C)c(-c4ccc(OC)c(OC)c4O)c3N)ccc2C1=O`, for which the T/C was 110 % of control (dose: 0.05 mg/kg/injection, schedule: Q07DX003 (ip), vehicle: Klucel (hydroxypropylcellulose) (HPC)); 93 % of control (dose: 0.1 mg/kg/injection, schedule: Q07DX003 (ip), vehicle: Klucel (hydroxypropylcellulose) (HPC)); 111 % of control (dose: 0.2 mg/kg/injection, schedule: Q07DX003 (ip), vehicle: Klucel (hydroxypropylcellulose) (HPC)); 83 % of control (dose: 0.4 mg/kg/injection, schedule: Q07DX003 (ip), vehicle: Klucel (hydroxypropylcellulose) (HPC)).

As for `CO[C@H](C(=O)[C@@H](O)[C@@H](C)O)[C@@H]1Cc2cc3cc(OC4CC(OC5CC(O)C(O)C(C)O5)C(O)C(C)O4)c(C)c(O)c3c(O)c2C(=O)[C@H]1OC1CC(OC2CC(OC3CC(C)(O)C(O)C(C)O3)C(O)C(C)O2)C(O)C(C)O1` (stereo partly drawn), the T/C reads like this: under setting [4], 114 % of control; (dose: 0.12 mg/kg/injection, schedule: Q07DX002 (ip), vehicle: saline) 99 % of control; under setting [5], 161 % of control; (dose: 0.25 mg/kg/injection, schedule: Q07DX003 (ip), vehicle: saline) 75 % of control; (dose: 0.5 mg/kg/injection, schedule: Q07DX003 (ip), vehicle: saline) 65 % of control; (dose: 1.0 mg/kg/injection, schedule: Q07DX003 (ip), vehicle: saline) 49 % of control. Further, under “dose: 2.0 mg/kg/injection, schedule: Q07DX003 (ip), vehicle: saline”, the T/C is 37 % of control.

Take `COc1cc2c[n+](C)c3c4cc5c(cc4ccc3c2cc1OC)OCO5`: the T/C is, setting by setting: (dose: 20.0 mg/kg/injection, schedule: Q07DX003 (ip), vehicle: saline with Tween-80) 110 % of control; (dose: 40.0 mg/kg/injection, schedule: Q07DX003 (ip), vehicle: saline with Tween-80) 97 % of control.

With `Nc1nc2c(C(=O)N3CCCC3)nnn2c2ccccc12`, the T/C is 98 % of control under setting [6]; 105 % of control under setting [7]; 100 % of control (dose: 50.0 mg/kg/injection, schedule: Q07DX002 (ip), vehicle: saline with Tween-80); 116 % of control under setting [8].

For the molecule `O=c1nc(Oc2ccccc2)nc2ncccn12`, the T/C is 82 % of control under setting [6], 94 % of control under setting [7] and 74 % of control under setting [8].

As for `COc1ccc(C[C@H](N)C(=O)NC2C(CO)OC(n3cnc4c(N(C)C)ncnc43)C2O)cc1` (stereo partly drawn), the T/C is 81 % of control (dose: 12.5 mg/kg/injection, schedule: Q07DX002 (ip), vehicle: saline); 79 % of control and 91 % of control (dose: 24.0 mg/kg/injection, schedule: Q07DX002 (ip), vehicle: saline); 86 % of control (dose: 25.0 mg/kg/injection, schedule: Q07DX002 (ip), vehicle: saline); 80 % of control and 82 % of control (dose: 48.0 mg/kg/injection, schedule: Q07DX002 (ip), vehicle: saline); 92 % of control and 106 % of control (dose: 50.0 mg/kg/injection, schedule: Q07DX002 (ip), vehicle: saline); 91 % of control and 108 % of control (dose: 96.0 mg/kg/injection, schedule: Q07DX002 (ip), vehicle: saline). Besides, the T/C (dose: 100.0 mg/kg/injection, schedule: Q07DX002 (ip), vehicle: saline) is 89 % of control and 94 % of control; the T/C (dose: 192.0 mg/kg/injection, schedule: Q07DX002 (ip), vehicle: saline) was 72 % of control and 93 % of control; the T/C (dose: 200.0 mg/kg/injection, schedule: Q07DX002 (ip), vehicle: saline) was 55 % of control and 64 % of control; the T/C (dose: 384.0 mg/kg/injection, schedule: Q07DX002 (ip), vehicle: saline) is 64 % of control and 84 % of control; the T/C (dose: 400.0 mg/kg/injection, schedule: Q07DX002 (ip), vehicle: saline) was 21 % of control.

`COc1ccc(-c2csc(=[N+]3CCCCC3)s2)cc1`: the T/C (dose: 3.13 mg/kg/injection, schedule: Q07DX002 (ip), vehicle: water) is 107 % of control; the T/C (dose: 6.25 mg/kg/injection, schedule: Q07DX002 (ip), vehicle: water) was 105 % of control; the T/C (dose: 12.5 mg/kg/injection, schedule: Q07DX002 (ip), vehicle: water) was 116 % of control; the T/C (dose: 25.0 mg/kg/injection, schedule: Q07DX002 (ip), vehicle: water) was 123 % of control; the T/C (dose: 50.0 mg/kg/injection, schedule: Q07DX002 (ip), vehicle: water) is 121 % of control.

On to `CC(=O)OCC1C(=O)OCC1C(=O)N1Cc2cc3ccccc3nc2C1` (stereo not drawn), for which the T/C was 88 % of control (dose: 4.0 mg/kg/injection, schedule: Q07DX002 (ip), vehicle: saline with Tween-80); 230 % of control (dose: 8.0 mg/kg/injection, schedule: Q07DX003 (ip), vehicle: saline with Tween-80); 191 % of control (dose: 16.0 mg/kg/injection, schedule: Q07DX003 (ip), vehicle: saline with Tween-80); 30 % of control (dose: 32.0 mg/kg/injection, schedule: Q07DX003 (ip), vehicle: saline with Tween-80); 85 % of control and 102 % of control (dose: 64.0 mg/kg/injection, schedule: Q07DX002 (ip), vehicle: saline with Tween-80); 115 % of control (dose: 128.0 mg/kg/injection, schedule: Q07DX002 (ip), vehicle: saline with Tween-80). Besides, the T/C (dose: 128.0 mg/kg/injection, schedule: Q07DX003 (ip), vehicle: saline with Tween-80) was 107 % of control.

For the molecule `CCC[P+](c1ccccc1)(c1ccccc1)c1ccccc1`, the T/C runs as follows: (dose: 3.12 mg/kg/injection, schedule: Q07DX003 (ip), vehicle: saline with Tween-80) 114 % of control and 98 % of control; (dose: 6.25 mg/kg/injection, schedule: Q07DX003 (ip), vehicle: saline with Tween-80) 96 % of control; (dose: 25.0 mg/kg/injection, schedule: Q07DX003 (ip), vehicle: saline with Tween-80) 76 % of control; (dose: 50.0 mg/kg/injection, schedule: Q07DX003 (ip), vehicle: saline with Tween-80) 73 % of control.

`COc1cc(C[C@H]2c3cc(OC)c(OC)cc3CCN2C)c(Oc2cc3c(cc2OC)-c2c(OC)c(OC)cc4c2[C@H](C3)N(C)CC4)cc1OC`: the T/C is, setting by setting: (dose: 25.0 mg/kg/injection, schedule: Q01DX005 (ip), vehicle: saline) 59 % of control; (dose: 25.0 mg/kg/injection, schedule: Q04DX003 (ip), vehicle: saline) 116 % of control; (dose: 50.0 mg/kg/injection, schedule: Q01DX005 (ip), vehicle: saline) 198 % of control; (dose: 50.0 mg/kg/injection, schedule: Q04DX003 (ip), vehicle: saline) 60 % of control; (dose: 100.0 mg/kg/injection, schedule: Q01DX005 (ip), vehicle: saline) 64 % of control; (dose: 100.0 mg/kg/injection, schedule: Q04DX003 (ip), vehicle: saline) 76 % of control. Under “dose: 200.0 mg/kg/injection, schedule: Q01DX005 (ip), vehicle: saline”, the T/C was 36 % of control.

For the molecule `CNC(=O)/C=C/C1=CN2C(=O)c3ccc(C)c(O)c3NC(OC)C2C1` (stereo not drawn), the T/C by setting is: (dose: 0.03 mg/kg/injection, schedule: Q07DX002 (ip), vehicle: saline) 119 % of control; under setting [4], 109 % of control; under setting [5], 103 % of control; (dose: 0.5 mg/kg/injection, schedule: Q07DX002 (ip), vehicle: saline) 122 % of control.
